From BigSolDB 2.1

CCCSc1ccc2nc(NC(=O)OC)[nH]c2c1
solubility (mole fraction)
Conditions | in acetone | in ethanol | in ethyl acetate | in isobutyl acetate | in isopropanol | in methanol | in n-butanol | in n-butyl acetate | in n-propanol | in n-propyl acetate
278.15 K | 0.00148 | 5.59e-05 | 0.00053 | 0.000491 | 9.89e-05 | 9.62e-05 | 0.00021 | 0.000553 | 0.00017 | 0.000468
283.15 K | 0.00173 | 7.25e-05 | 0.000596 | 0.000542 | 0.000128 | 0.000114 | 0.000254 | 0.000609 | 0.000192 | 0.00054
288.15 K | 0.00204 | 9.39e-05 | 0.000688 | 0.000594 | 0.000156 | 0.000133 | 0.000298 | 0.000691 | 0.00023 | 0.000598
293.15 K | 0.00253 | 0.00011 | 0.000805 | 0.000671 | 0.000187 | 0.000157 | 0.000343 | 0.000783 | 0.000276 | 0.000673
298.15 K | 0.00302 | 0.00014 | 0.000925 | 0.000749 | 0.000234 | 0.000174 | 0.000402 | 0.000873 | 0.000325 | 0.000777
303.15 K | 0.00349 | 0.000182 | 0.00103 | 0.000799 | 0.000272 | 0.000205 | 0.000473 | 0.000983 | 0.000371 | 0.000858
308.15 K | 0.00389 | 0.000234 | 0.00119 | 0.000873 | 0.000328 | 0.000257 | 0.000558 | 0.0011 | 0.000423 | 0.000962
313.15 K | 0.00442 | 0.000297 | 0.00133 | 0.000964 | 0.000394 | 0.000298 | 0.00063 | 0.0012 | 0.000488 | 0.00106
318.15 K | 0.00528 | 0.000364 | 0.0015 | 0.00109 | 0.000456 | 0.000363 | 0.000738 | 0.00132 | 0.000569 | 0.00117
323.15 K | 0.00589 | 0.000452 | 0.00167 | 0.00119 | 0.000553 | 0.000428 | 0.000829 | 0.00146 | 0.000624 | 0.0013
